In patent US20160052887A1, “PHARMACEUTICALLY ACCEPTABLE AMINE SALTS OF PITAVASTATIN” (DSM SINOCHEM PHARMACEUTICALS NETHERLANDS B.V., priority 2013, published 2016):
Structures can show the parent of a compound that is named as a salt.

Tests used:
[1] = Basic toxicological evaluation
[2] = Solubility of pitavastatin salts in buffers of pH 1.2 and pH 4.8; format: physicochemical; details: for Appearance: appearance of the mixture at the reported pH and amount of salt added
Text: The pharmaceutically acceptable pitavastatin salts obtained above were subjected to solubility measurements. […] Amounts of added salt were increased as long as the resulting solution remained clear and the resulting pH value, as well as the total amount of salt added, are reported in the below Table.
The following observations were made. The solubility of pitavastatin calcium salt is very low, initially the compound floated on the buffer. In contrast, the solubility of the amine salts was much higher; in many cases solutions were still clear after more than 160 mg·g^−1 solution was added. For the amine salts, pH values increased to values as reported in the Table upon increasing addition of salt (indicating exhaustion of buffer capacity due to high salt solubility). […] Qualitatively, the speed of dissolution of the amine salts was much faster than the speed of dissolution of the calcium salt. The pitavastatin amine salts were not hygroscopic (qualitative determination).

## NCc1ccco1 [1-furfurylamine]
[1]
  Toxicological classification: very safe

## O=C(O)C[C@H](O)C[C@H](O)/C=C/c1c(C2CC2)nc2ccccc2c1-c1ccc(F)cc1 [Calcium salt, pitavastatin-Ca, reference compound]
[2]
  Appearance: Suspension
[2]; aqueous buffers
  Solubility (observation in words): very low

## O=C(O)C[C@H](O)C[C@H](O)/C=C/c1c(C2CC2)nc2ccccc2c1-c1ccc(F)cc1 [Choline salt, pitavastatin-choline salt]
[2]
  Appearance: Clear

## NCc1ccco1.O=C(O)C[C@H](O)C[C@H](O)/C=C/c1c(C2CC2)nc2ccccc2c1-c1ccc(F)cc1 [Furfurylamine salt, pitavastatin-furfuryl amine salt]
[2]
  Appearance: Suspension

## O=C(O)C[C@H](O)C[C@H](O)/C=C/c1c(C2CC2)nc2ccccc2c1-c1ccc(F)cc1 [L-Lysine salt, pitavastatin-lysine salt]
[2]; starting with a buffer of pH 4.8 (entry at pH 4.5)
  Solubility (observation in words): very low

## O=C(O)C[C@H](O)C[C@H](O)/C=C/c1c(C2CC2)nc2ccccc2c1-c1ccc(F)cc1 [Tris(hydroxymethyl)-aminomethane salt, pitavastatin-tris(hydroxymethyl)aminomethane salt]
[2]
  Appearance: Clear
